Source: patent publication US6737383B1, “Herbicidal oxadiazolidines” (priority 1999, dated 2004)

Columns and labels:
[1] = tested on: corn; experiment: Test B pre/postemergence corn; format: in vivo, Zea mays
Outline: (§1)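 Response is a visual 0-to-10 score relative to untreated plants, where 0 means no effect and 10 means complete control, taken twelve to sixteen days after application. Treatments went onto soil at planting and onto foliage of 1- to 4-leaf plants, using a surfactant-containing non-phytotoxic solvent.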

[2] = tested on: wild oat; experiment: Test B pre/postemergence wild oat; format: in vivo, Avena fatua
Outline: as §1

[3] = tested on: crabgrass; experiment: Test B pre/postemergence crabgrass; format: in vivo, Digitaria sanguinalis
Outline: as §1

[4] = tested on: wheat; experiment: Test B pre/postemergence wheat; format: in vivo, Triticum aestivum
Outline: as §1

[5] = tested on: smallflower flatsedge; experiment: Test B flood test smallflower flatsedge; format: in vivo, Cyperus difformis; details: for S. Flatsedge plant response rating: Postemergence section (flood test species)
Outline: (§2)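 Each value is a visual injury score relative to controls, with 10 meaning complete control and 0 no effect. Evaluation took place twelve to sixteen days after the 2-leaf-stage plants were treated and kept in the greenhouse.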

[6] = tested on: velvetleaf; experiment: Test B pre/postemergence velvetleaf; format: in vivo, Abutilon theophrasti
Outline: as §1

[7] = tested on: bamyardgrass; experiment: Test B flood test barnyardgrass; format: in vivo, Echinochloa crus-galli
Outline: as §2

[8] = tested on: morningglory; experiment: Test B pre/postemergence morningglory; format: in vivo, Ipomoea hederacea
Outline: as §1

[9] = tested on: giant foxtail; experiment: Test B pre/postemergence giant foxtail; format: in vivo, Setaria faberii
Outline: as §1

[10] = tested on: cocklebur; experiment: Test B pre/postemergence cocklebur; format: in vivo, Xanthium strumarium
Outline: as §1

[11] = tested on: purple nutsedge; experiment: Test B pre/postemergence purple nutsedge; format: in vivo, Cyperus rotundus
Outline: as §1

[12] = tested on: blackgrass; experiment: Test B pre/postemergence blackgrass; format: in vivo, Alopecurus myosuroides
Outline: as §1

[13] = tested on: duck salad; experiment: Test B flood test duck salad; format: in vivo, Heteranthera limosa
Outline: as §2

[14] = tested on: surinam grass; experiment: Test B pre/postemergence surinam grass; format: in vivo, Brachiaria decumbens
Outline: as §1

[15] = tested on: rice; experiment: Test B flood test rice; format: in vivo, Oryza sativa; details: for Rice plant response rating: Postemergence section (flood test species)
Outline: as §2

[16] = Postemergence, Rate 250 g/ha, scale 0 to 10, 0 is no effect, 10 is complete control
[17] = Postemergence, Rate 500 g/ha, scale of 0 to 10 where 0 is no effect and 10 is complete control
[18] = Preemergence, Rate 62 g/ha, scale 0 to 10 (0 no effect, 10 complete control)
[19] = Preemergence, Rate 125 g/ha, scale of 0 to 10 where 0 is no effect and 10 is complete control
[20] = Preemergence, Rate 250 g/ha, scale 0 to 10, 0 is no effect, 10 is complete control
[21] = Preemergence, Rate 500 g/ha, scale 0 to 10, 0 is no effect, 10 is complete control
[22] = Rate 62 g/ha, Postemergence, scale of 0 to 10 where 0 is no effect and 10 is complete control
[23] = Rate 125 g/ha, Postemergence, scale 0 to 10, 0 is no effect, 10 is complete control
[24] = Rate 500 g/ha, scale of 0 to 10 where 0 is no effect and 10 is complete control
[25] = Rate 125 g/ha, scale 0 to 10, 0 is no effect, 10 is complete control
[26] = flood test species, listed under Postemergence, Rate 250 g/ha, scale 0 to 10, 0 is no effect, 10 is complete control
[27] = Postemergence section (flood test species), Rate 500 g/ha, scale of 0 to 10 where 0 is no effect and 10 is complete control
[28] = Rate 62 g/ha, Postemergence (flood test species), scale of 0 to 10 where 0 is no effect and 10 is complete control
[29] = Rate 125 g/ha, Postemergence section (flood test species), scale 0 to 10, 0 is no effect, 10 is complete control
[30] = Preemergence, Rate 250 g/ha, scale of 0 to 10 where 0 is no effect and 10 is complete control

SMILES: CC(C)N(C(=O)n1oc(=O)n(CCl)c1=O)c1ccc(Cl)cc1 [Compound 422]
- Plant response rating, Corn [1, 16]: 0
- Corn plant response rating [1, 17]: 0
- Plant response rating, Corn [1, 18]: 0
- Plant response rating, Corn [1, 19]: 0
- Corn plant response rating [1, 20]: 0
- Corn plant response rating [1, 21]: 0
- Corn plant response rating [1, 22]: 0
- Corn plant response rating [1, 23]: 0
- Wild oats plant response rating [2, 17]: 0
- Plant response rating, Wild oats [2, 18]: 0
- Plant response rating, Wild oats [2, 19]: 0
- Wild oats plant response rating [2, 20]: 0
- Wild oats plant response rating [2, 21]: 3
- Wild oats plant response rating [2, 23]: 0
- Plant response rating, Crabgrass [3, 16]: 0
- Crabgrass plant response rating [3, 17]: 0
- Plant response rating, Crabgrass [3, 18]: 0
- Plant response rating, Crabgrass [3, 19]: 0
- Crabgrass plant response rating [3, 20]: 0
- Crabgrass plant response rating [3, 21]: 0
- Crabgrass plant response rating [3, 22]: 0
- Crabgrass plant response rating [3, 23]: 0
- Wheat plant response rating [4, 17]: 0
- Plant response rating, Wheat [4, 18]: 0
- Plant response rating, Wheat [4, 19]: 0
- Wheat plant response rating [4, 20]: 0
- Wheat plant response rating [4, 21]: 0
- Wheat plant response rating [4, 23]: 0
- S. Flatsedge plant response rating [5, 24]: 0
- S. Flatsedge plant response rating [5, 25]: 0
- Plant response rating, S. Flatsedge [5, 26]: 0
- Plant response rating, Velvetleaf [6, 16]: 0
- Velvetleaf plant response rating [6, 17]: 0
- Plant response rating, Velvetleaf [6, 18]: 0
- Plant response rating, Velvetleaf [6, 19]: 0
- Velvetleaf plant response rating [6, 20]: 0
- Velvetleaf plant response rating [6, 21]: 0
- Velvetleaf plant response rating [6, 23]: 0
- Barnyardgrass plant response rating [7, 27]: 0
- Barnyardgrass plant response rating [7, 28]: 0
- Barnyardgrass plant response rating [7, 29]: 0
- Plant response rating, Barnyardgrass [7, 26]: 0
- Plant response rating, Morningglory [8, 16]: 0
- Morningglory plant response rating [8, 17]: 0
- Plant response rating, Morningglory [8, 18]: 0
- Plant response rating, Morningglory [8, 19]: 0
- Morningglory plant response rating [8, 20]: 0
- Morningglory plant response rating [8, 21]: 0
- Morningglory plant response rating [8, 23]: 0
- Plant response rating, Giant foxtail [9, 16]: 0
- Giant foxtail plant response rating [9, 17]: 0
- Plant response rating, Giant foxtail [9, 18]: 0
- Plant response rating, Giant foxtail [9, 19]: 0
- Giant foxtail plant response rating [9, 20]: 0
- Giant foxtail plant response rating [9, 21]: 0
- Giant foxtail plant response rating [9, 22]: 0
- Giant foxtail plant response rating [9, 23]: 0
- Plant response rating, Cocklebur [10, 16]: 0
- Cocklebur plant response rating [10, 17]: 0
- Plant response rating, Cocklebur [10, 18]: 0
- Plant response rating, Cocklebur [10, 19]: 0
- Cocklebur plant response rating [10, 20]: 0
- Cocklebur plant response rating [10, 21]: 0
- Cocklebur plant response rating [10, 22]: 0
- Cocklebur plant response rating [10, 23]: 0
- Plant response rating, Nutsedge [11, 16]: 0
- Nutsedge plant response rating [11, 17]: 0
- Plant response rating, Nutsedge [11, 18]: 0
- Plant response rating, Nutsedge [11, 19]: 0
- Nutsedge plant response rating [11, 20]: 0
- Nutsedge plant response rating [11, 21]: 0
- Nutsedge plant response rating [11, 23]: 0
- Plant response rating, Blackgrass [12, 16]: 0
- Blackgrass plant response rating [12, 17]: 0
- Plant response rating, Blackgrass [12, 18]: 0
- Plant response rating, Blackgrass [12, 19]: 0
- Blackgrass plant response rating [12, 30]: 0
- Blackgrass plant response rating [12, 21]: 0
- Blackgrass plant response rating [12, 22]: 0
- Blackgrass plant response rating [12, 23]: 0
- Ducksalad plant response rating [13, 27]: 0
- Ducksalad plant response rating [13, 28]: 0
- Ducksalad plant response rating [13, 29]: 0
- Plant response rating, Ducksalad [13, 26]: 0
- Plant response rating, B. signalgrass [14, 16]: 0
- B. signalgrass plant response rating [14, 17]: 0
- Plant response rating, B. signalgrass [14, 18]: 0
- Plant response rating, B. signalgrass [14, 19]: 0
- B. signalgrass plant response rating [14, 30]: 0
- B. signalgrass plant response rating ([14]; Preemergence, Rate 500 g/ha, scale of 0 to 10 where 0 is no effect and 10 is complete control): 0
- B. signalgrass plant response rating [14, 22]: 0
- B. signalgrass plant response rating [14, 23]: 0
- Rice plant response rating [15, 24]: 0
- Rice plant response rating [15, 25]: 0
- Plant response rating, Rice [15, 26]: 0
